Reference: PubChem BioAssay AID179 (DTP/NCI, 2004)
Several values for one entry are separate records, joined by “and”; a condition that tells them apart may be missing. Equal values may be shown once. Activity calls are given as the source filed them.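 How the source made its calls: active means compounds giving half or more protection of infected cells from virus-caused growth loss, again on retest; inactive means the rest.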 Where a SMILES comes first, the peptide text is derived from it.

Tested on: CEM cells HIV-1 protection, formazan growth assay
Experiment: NCI AIDS Antiviral Assay
Conditions: for IC50: measured here: growth of uninfected CEM cells
In short: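 CEM (human) cells, HIV-1 infected vs uninfected, 5-point dosing, formazan growth read-out. Retest threshold 50% protection.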

Structure (SMILES) | EC50 [µM] | IC50 | outcome
CCCCCc1cc(OC(=O)c2c(O)cc(OC)cc2CCCCC)cc(O)c1C(=O)O | > 295 | 29.5 µM | –
Cc1oc2nc(N(C)C)n3cnnc3c2c1C | – | – | inactive
COc1ccc(C2COc3c(ccc(OC)c3OC)C2=O)cc1OC (configuration not stated) | – | – | inactive
CCOC(=O)c1sc2c(c1OC(=O)c1ccc(Cl)cc1Cl)c(=O)n(-c1ccccc1)c(=S)n2-c1ccccc1 | > 200 | 0.0871 µM | –
CCCC1(CCCNC(=O)c2ccccc2)OCc2ccccc2CO1 | > 513 | > 513 µM | –
COc1ccc(Nc2ccnc3cc(Cl)ccc23)cc1CCN | > 89.1 | > 89.1 µM | –
Cc1ccc(CN2CC(=O)N3Cc4ccccc4CN3C(=O)C2)cc1 | – | – | inactive
Cn1ncc2c(Nc3ccc(Cl)cc3)c3ccccc3nc21 | – | – | inactive
CC(C)(C)/[N+]([O-])=[N+](\[O-])C(C)(C)C | > 200 | 33.9 µM | –
O=C1OCCN1N1CCOC1=O | > 200 | > 200 µM | –
O=C(Nc1ccccc1)c1cc2ccc(O)c(O)c2cn1 | > 158 | 8.32 µM | –
O=C(COc1ccc(/C=C/C(=O)c2ccc(Cl)cc2)cc1)Nc1c(Cl)cccc1Cl | > 40.7 | > 40.7 µM | –
CC(C)(C)c1cc(Cc2ccc(S(C)(=O)=O)cc2)c(O)c(C(C)(C)C)c1 | – | – | inactive
CCC(C)C(NC(=O)C(CCC(N)=O)NC(=O)C(CCCCN)NC(=O)C(CO)NC(=O)C(CC(C)C)NC(=O)C(Cc1ccc(O)cc1)NC(=O)C(C)N)C(=O)NC(C)C(=O)NC(CO)C(=O)NC(CC(N)=O)C(=O)O (configuration not stated) (H-AYLSKQIASN-OH; configuration not given here) | > 57.5 | > 57.5 µM | –
CN(C)CCOC1(Cc2ccc(Cl)cc2Cl)CCC(C(C)(C)C)CC1 (configuration not stated) | > 200 | 2.14 µM and 3.72 µM | –
CCCC(=O)O[C@@H]1C(C)C2(O)C3C=C(C)C(=O)[C@@]3(O)CC(CO)=C[C@H]2C2C(C)(C)C21OC(=O)CCC (some centres not stated) | – | – | inactive
COc1ccc(-c2cc[n+]([O-])c(C)c2C)c(OC)c1OC | > 871 | 83.2 µM | –
CC(=O)NNc1ncc(C(=O)/C=C/c2ccccc2C)s1 | > 22.4 | > 22.4 µM | –
COC1(OC)c2no[n+]([O-])c2C(OC)(OC)c2c1no[n+]2[O-] | > 200 | 3.89 µM | –
C=C1C(=O)OC2CC(C)C3C(OC(C)=O)CC(OC(C)=O)C3(C)CC12 (configuration not stated) | > 97.7 | 6.76 µM | –
CC1CC(=O)N2CCCNC2=C1C#N (configuration not stated) | > 200 | > 200 µM | –

Structure (SMILES) | EC50 [µM] | IC50 | outcome
O=[N+]([O-])c1ccc(P2(=O)Nc3ccccc3N2)cc1 | > 245 | 70.8 µM | –
CN(C)Cc1cc(N=Nc2ccccc2)cc(CN(C)C)c1O | > 200 | 102 µM | –
C=C1C(C)C2C(Cc3ccccc3)NC(=O)C23C(OC(C)=O)C=CC(C)(O)C(=O)C(C)C/C=C/C3C1O (configuration not stated) | > 20 | 0.17 µM | –
CC(C)=CC(=O)OC1C2C(C)=CC(O)C(O)C2(C)C2C3(O)OCC24C(CC(=O)OC14)C(C)C3O (configuration not stated) | > 2 | 0.0912 µM | –
CC1=CC(=O)C2[C@@H](C1)C1(C)C(=O)C34OC(=O)C[C@@](C)([C@H]1C(=O)[C@@H]2C)[C@]3(C)CC[C@]12C[C@@H](C)C[C@H](CN41)O2 (some centres not stated) | – | – | inactive
CC1(C)CC2C(/C1=N/O)C1(C)CCCC2(C)C1O (configuration not stated) | > 200 | > 200 µM | –
CSCCCNC(=O)[C@H](CSC)NC(=O)c1csc(CCNC(=O)[C@@H](NSc2ccccc2[N+](=O)[O-])C(C)O)n1 (some centres not stated) | > 57.5 | > 57.5 µM | –
O=c1[nH]c(Nc2ccc(Cl)cc2)nc2nc[nH]c12 | > 100 | 89.1 µM | –
Cc1cccc2c1C(=O)OC2(C)c1cccc2ccccc12 (configuration not stated) | – | – | inactive
COc1ccc2c(c1)OCCN(C)OC2c1cccc(Cl)c1 (configuration not stated) | > 200 | 87.1 µM | –
CCOC(=O)c1cc(-c2ccc(OC)c(OC)c2)c[nH]1 | > 200 | 50.1 µM | –
CCOC(=O)C(C(=O)OCC)=C1N[C@H](C(=O)OCC)CS1 | > 295 | > 295 µM | –
O=C(NC(=Nc1ccccc1)SCSC(=Nc1ccccc1)NC(=O)c1ccccc1F)c1ccccc1F | > 200 | 28.8 µM | –
O=C1N/C(=N\N=C\c2ccccc2)C(c2ccccc2)O1 (configuration not stated) | > 200 | 33.9 µM | –
COC(=O)C(NC(=O)c1ccccc1)C(c1c(O)cc(O)cc1O)P(=O)(OC)OC (configuration not stated) | > 16.2 | > 16.2 µM | –
Cc1ccccc1N1C(=O)[N+]2(CCCCC2)N=C1[O-] | > 955 | 295 µM | –
C=C(CS(=O)(=O)c1ccccc1)C(=O)OCC | – | – | inactive
N#Cc1c2n(c(=S)n(-c3ccccc3)c1=N)CCCCCCC2 | > 200 | 10.7 µM | –
CCN(CC)CCC(=O)OC1C(C)=CC(C)C(=O)CC(C(C)CC2CCC(O)C(OC)C2)OC(=O)C2CCCCN2C(=O)C(=O)[C@@]2(O)OC(CCC2C)CC(OC)\C(C)=C/C=C/C=C/C(C)CC(C)C(=O)C1OC (some centres not stated) | > 200 | 9.12 µM | –
COc1ccc2c(c1OC)C(=O)c1ccoc1C2=O | – | – | inactive
CCOC(=O)c1cc(NC(=O)c2ccccc2)c(=O)n2c(cc3c(Cl)cccc32)c1O | > 200 | > 200 µM | –

Structure (SMILES) | EC50 [µM] | IC50 | outcome
c1ccc(C2CCCNCC2)cc1 (configuration not stated) | – | – | inactive
O=C(N/S(=N/S(=O)(=O)c1ccc(Br)cc1)C(Cl)(Cl)Cl)c1ccccc1 (configuration not stated) | > 200 | > 200 µM | –
COc1ccc(-n2cnnc2-c2nsc3ccccc23)cc1 | > 85.1 | 55 µM | –
COC1OC(CO)C(N=C(C)C)C1O (configuration not stated) | > 200 | > 200 µM | –
CC(=O)OCC1OC(n2c(-c3ccccc3)c(N=Nc3ccccc3)c(C)c(C#N)c2=S)C(OC(C)=O)C(OC(C)=O)C1OC(C)=O (configuration not stated) | > 200 | > 200 µM | –
CCOC(=O)C(NC(=O)CC)(Nc1ccc(F)c(Cl)c1)C(F)(F)F (configuration not stated) | > 200 | > 200 µM | –
Cc1ccc2nc(C=Nc3ccc(Cl)cc3)cc(C)c2c1 | – | – | inactive
CC#CC(O)(C(=O)OC1CCCN(C)C1)C1=CC=CCC1 (configuration not stated) | > 200 | > 200 µM | –
CN/N=C(/CC(=O)c1sc(-n2nc(-c3ccccc3)cc2-c2ccccc2)nc1C)C(=O)Nc1ccc(Cl)c(Cl)c1 | > 112 | > 112 µM | –
CC[N+]1(C)CCC(O)(/C=C/c2ccc(OC)cc2)C(C(=O)/C=C/c2ccc(OC)cc2)C1 (configuration not stated) | > 200 | 1.12 µM | –
CC(SCC(=O)O)=[N+]1CCCCC1 | > 891 | > 891 µM | –
CC1(c2ccccc2)CC(c2ccccc2)=NO1 (configuration not stated) | > 57.5 | > 57.5 µM | –
O=C(NC(=Nc1ccccc1)SCSC(=Nc1ccccc1)NC(=O)c1ccccc1Cl)c1ccccc1Cl | > 200 | 30.9 µM | –
O=C(O)Cn1c(=O)[nH]c(=O)c2c1ncn2Cc1ccccc1 | > 832 | > 832 µM | –
Cc1cccc(NC2=NCCO2)c1Cl | > 200 | 105 µM | –
O=S(Nc1ccccc1)c1ccc(Cl)cc1 (configuration not stated) | > 200 | 81.3 µM | –
CC(C)c1ccc2c(c1)C=C1OC(=O)[C@]3(C)CCC[C@@]2(C)C13 (some centres not stated) | > 200 | 115 µM | –
COc1cc(C(=O)O)c(C(=O)c2ccc([N+](=O)[O-])cc2)cc1OC | > 200 | > 200 µM | –
CNP1(NC)=NP(NC)(NC)=NP(NC)(NC)=NP(NC)(NC)=N1 | > 3.47 | > 3.47 µM | –
CN(C)CCS(=O)(=O)O | > 200 | > 200 µM | –
